IC50 data for 47 molecules are collected here from US20260167656A1, “PHOSPHORAMIDATE COMPOUNDS AND USES THEREOF” (ALLORION THERAPEUTICS INC, priority 2022, published 2026).

Test [1] has as its system non-small cell lung cancer cell line H460. Put plainly: In vitro human cancer cell line cytotoxicity (proliferation) assay in H460, CellTiter-Glo, 72 hours. The conditions noted are these: H460 cells, DMSO condition (no AKR1C3 inhibitor), read-out: CTG H460: Avg IC50 (nM) [Assay Condition: DMSO]. It is filed as cell-based. The procedure:
Biological Example 1. In Vitro Human Cancer Cell Line Cytotoxicity Assay
IC50 values in nanomolar reported here were derived from in vitro proliferation assay data in non-small cell lung cancer cell line H460.
(§1) Specifically, exponentially growing cells were seeded at density of 3×10^3 cells per well in 96-well plate and incubated at 37° C. in 5% CO2, 95% air and 100% relative humidity for 24 hours before adding compounds. Compounds were solubilized in 100% DMSO at 10 mM. Compounds were added to the plate using Tecan D300e® digital Dispenser. After drug addition, the plates were incubated for an additional 72 hours at 37° C. in 5% CO2, 95% air and 100% relative humidity. At the end of the incubation, cell viability was quantified with CellTiter-Glo® assay.
Background: In ATP-based viability assays light output follows the ATP content of the culture.

Test [2] has the same test system. Description: H460 proliferation assay in the presence of 3 uM ASP9521 (AKR1C3 specific inhibitor). The conditions noted are these: H460 cells, CellTiter-Glo, 72 hours, in the presence of 3 uM ASP9521 added 4 hours prior to compounds; read-out: CTG H460: Avg IC50 (nM) [Assay Condition: ASP9521]. It is filed as cell-based, human. As for the experimental part:
as §1
To further confirm that compounds were activated by human AKR1C3, H460 proliferation assay were also performed in the presence of 3 uM […], an AKR1C3 specific inhibitor. ASP9521 were added to the plates 4 hours prior to the addition of compounds.

In general, IC50 refers to the concentration at which inhibition is half-maximal. For the molecule `CC(OP(=O)(N1CC1)N1CC1)c1cc2cc(Oc3cccc(C(=O)N(C)C)c3)c([N+](=O)[O-])cc2o1` (single isomer, unassigned) [Example 233], the IC50 in test [1] was below 10 nM; in test [2] it was 3890 nM.
On the same counts, the results for `Cc1nc(-c2cccc(Oc3c([N+](=O)[O-])ccc4c3CCC4OP(=O)(N3CC3)N3CC3)c2)no1` (stereo not shown) [Example 88] are 50 to 100 nM and 3570 nM.
Take `O=[N+]([O-])c1ccc2c(c1Oc1ccc3c(c1)OC(F)(F)O3)CC[C@@H]2OP(=O)(N1CC1)N1CC1` [Example 385]: the IC50 in test [1] (Homo sapiens, NCI-H460, 72 h) was below 10 nM; in test [2], 819 nM.
For `CN1CCc2ccc(Oc3cc4c(cc3[N+](=O)[O-])CCC4OP(=O)(N3CC3)N3CC3)cc2C1=O` (stereo not shown) [Example 166], the IC50 is 10 to 50 nM in test [1] (Homo sapiens, NCI-H460, 72 h) and 976 nM in test [2].
For `O=[N+]([O-])c1cc2c(cc1Oc1ccc(C3CC3)cc1)C(OP(=O)(N1CC1)N1CC1)CC2` (stereo not shown) [Example 149], the IC50 in test [1] is below 10 nM; in test [2], 372 nM.
The matching figures for `CC1(C)CN(c2ccc(Oc3c([N+](=O)[O-])ccc4c3CCC4OP(=O)(N3CC3)N3CC3)cc2)C(=O)O1` (stereo not shown) [Example 426]: below 10 nM and 638 nM.
The matching figures for `O=[N+]([O-])c1ccc2c(c1Oc1ccc(-c3ccc(Cl)cc3)cc1)CC[C@H]2OP(=O)(N1CC1)N1CC1` [Example 270]: 10 to 50 nM and 5550 nM.
The matching figures for `Cc1noc(-c2cccc(Oc3c([N+](=O)[O-])ccc4c3CCC4OP(=O)(N3CC3)N3CC3)c2)n1` (stereo not shown) [Example 120]: below 10 nM and 2080 nM.
Take `Cn1c(-c2cccc(Oc3c([N+](=O)[O-])ccc4c3CCC4OP(=O)(N3CC3)N3CC3)c2)cccc1=O` (stereo not shown) [Example 74]: the IC50 in test [1] is at least 100 nM; in test [2], 1270 nM.
On the same counts, the results for `O=[N+]([O-])c1cc2oc(COP(=O)(N3CC3)N3CC3)cc2cc1Oc1cccc(OC(F)(F)F)c1` [Example 542] are below 10 nM and 963 nM.
The matching figures for `Cc1cccc(-c2cccc(Oc3c([N+](=O)[O-])ccc4c3CCC4OP(=O)(N3CC3)N3CC3)c2)n1` (stereo not shown) [Example 321]: 10 to 50 nM and 6690 nM.
As to `O=C(c1cccc(Oc2c([N+](=O)[O-])ccc3c2CCC3OP(=O)(N2CC2)N2CC2)c1)N1CCOCC1` (single isomer, unassigned) [Example 125], the 50% inhibitory concentration (IC50) is below 10 nM in test [1] (Homo sapiens, NCI-H460, 72 h) and 766 nM in test [2].
On to `O=[N+]([O-])c1cc2c(cc1Oc1cccc(-c3ccccc3)c1)C(OP(=O)(N1CC1)N1CC1)CC2` (single isomer, unassigned) [Example 169], for which the concentration for half-maximal inhibition (IC50) in test [1] was below 10 nM; in test [2], 766 nM.
In the case of `O=[N+]([O-])c1ccc2c(c1Oc1ccc(F)c(-n3cc(F)cn3)c1)CCC2OP(=O)(N1CC1)N1CC1` (racemic) [Example 418], the IC50 is below 10 nM in test [1] and 1210 nM in test [2].
The matching figures for `CS(=O)(=O)c1cc(Oc2c([N+](=O)[O-])ccc3c2CCC3OP(=O)(N2CC2)N2CC2)ccc1F` (stereo not shown) [Example 508]: below 10 nM and 519 nM.
On the same counts, the results for `O=[N+]([O-])c1ccc2c(c1Oc1cccc(-c3noc(C4CC4)n3)c1)CCC2OP(=O)(N1CC1)N1CC1` (stereo not shown) [Example 91] are at least 100 nM and above 10000 nM.
On the same counts, the results for `CC(C)Oc1cccc(Oc2cc3cc(COP(=O)(N4CC4)N4CC4)oc3cc2[N+](=O)[O-])c1` [Example 547] are below 10 nM and 1260 nM.
As to `O=[N+]([O-])c1ccc2c(c1Oc1ccc(-c3ccccc3)nc1)CCC2OP(=O)(N1CC1)N1CC1` (stereo not shown) [Example 51], the values for the IC50 in test [1] and in test [2] were below 10 nM and 327 nM, respectively.
The matching figures for `O=C1OCCN1c1cccc(Oc2c([N+](=O)[O-])ccc3c2CCC3OP(=O)(N2CC2)N2CC2)c1` (stereo not shown) [Example 71]: below 10 nM and 31.9 nM.
Consider `Cc1nsc(-c2cccc(Oc3c([N+](=O)[O-])ccc4c3CC[C@@H]4OP(=O)(N3CC3)N3CC3)c2F)n1` [Example 360], for which the IC50 was below 10 nM in test [1] (Homo sapiens, NCI-H460, 72 h) and 391 nM in test [2].
Take `Cc1csc(-c2cc(Oc3c([N+](=O)[O-])ccc4c3CCC4OP(=O)(N3CC3)N3CC3)ccc2F)n1` (stereo not shown) [Example 340]: the figures for the half-inhibitory concentration (IC50) in test [1] and in test [2] were 10 to 50 nM and 4390 nM, respectively.
The matching figures for `CC1(C)CN(c2cccc(Oc3c([N+](=O)[O-])ccc4c3CCC4OP(=O)(N3CC3)N3CC3)c2)C(=O)O1` (racemic) [Example 416]: below 10 nM and 275 nM.
With `CSc1cc(Oc2c([N+](=O)[O-])ccc3c2CCC3OP(=O)(N2CC2)N2CC2)ccc1F` (stereo not shown) [Example 507], the IC50 in test [1] was below 10 nM; in test [2], 952 nM.
The matching figures for `CNC(=O)c1cc(Oc2c([N+](=O)[O-])ccc3c2CC[C@@H]3OP(=O)(N2CC2)N2CC2)ccc1F` [Example 260]: below 10 nM and 734 nM.
As for `O=[N+]([O-])c1ccc2c(c1Oc1ccc(-c3ccccc3)cc1)OCCC2OP(=O)(N1CC1)N1CC1` (stereo not shown) [Example 135], the IC50 in test [1] is below 10 nM; in test [2], 482 nM.
For `Cn1cc(-c2ccc(Oc3c([N+](=O)[O-])ccc4c3CCC4OP(=O)(N3CC3)N3CC3)cc2)cn1` (single isomer, unassigned) [Example 58], the IC50 in test [1] is 50 to 100 nM; in test [2], 1010 nM.
On the same counts, the results for `CC(C)c1cc(Oc2c([N+](=O)[O-])ccc3c2CCC3OP(=O)(N2CC2)N2CC2)ccc1F` (stereo not shown) [Example 332] are below 10 nM and 1960 nM.
On the same counts, the results for `O=C(NC1CC1)c1ccc(Oc2c([N+](=O)[O-])ccc3c2CCC3OP(=O)(N2CC2)N2CC2)cc1` (stereo not shown) [Example 73] are below 10 nM and 943 nM.
Consider `O=[N+]([O-])c1cc2c(cc1Oc1ccccc1-c1ccccc1)C(OP(=O)(N1CC1)N1CC1)CC2` (stereo not shown) [Example 196], for which the IC50 was at least 100 nM in test [1] (Homo sapiens, NCI-H460, 72 h) and 6370 nM in test [2].
Turning to `CC(C)(C)c1cncc(Oc2c([N+](=O)[O-])ccc3c2CCC3OP(=O)(N2CC2)N2CC2)c1` (racemic) [Example 324], the half-inhibitory concentration (IC50) was below 10 nM in test [1] and 445 nM in test [2].
For `CC(OP(=O)(N1C[C@H]1C)N1C[C@H]1C)c1ccc([N+](=O)[O-])c(Oc2ccc(-c3ccc(F)cn3)c(F)c2)c1` (stereo partly shown) [Example 224], the figures for the IC50 in test [1] and in test [2] were below 10 nM and 6460 nM, respectively.
On to `O=[N+]([O-])c1ccc2c(c1Oc1cc(F)cc(-c3ncccn3)c1)CC[C@@H]2OP(=O)(N1CC1)N1CC1` [Example 356], for which the IC50 was below 10 nM in test [1] (Homo sapiens, NCI-H460, 72 h) and 1990 nM in test [2].
Take `O=C(c1cccc(Oc2c([N+](=O)[O-])ccc3c2CCC3OP(=O)(N2CC2)N2CC2)c1)N1CCC(F)(F)C1` (stereo not shown) [Example 239]: the half-inhibitory concentration (IC50) in test [2] is 1060 nM.
On the same count and under the same terms, the value for `O=C1CCCN1c1cccc(Oc2c([N+](=O)[O-])ccc3c2CCC3OP(=O)(N2CC2)N2CC2)c1` (stereo not shown) [Example 413] was 1180 nM.
Consider `O=C1COCCN1c1cccc(Oc2c([N+](=O)[O-])ccc3c2CCC3OP(=O)(N2CC2)N2CC2)c1` (stereo not shown) [Example 411], for which the IC50 in test [1] was 10 to 50 nM.
Turning to `O=C(c1cccc(Oc2c([N+](=O)[O-])ccc3c2CCC3OP(=O)(N2CC2)N2CC2)c1)N1CCC(F)(F)CC1` (stereo not shown) [Example 244], the IC50 in test [2] stood at 834 nM.
Same read-out and setting: the value for `Cn1cc(-c2ccc(Oc3cc4c(cc3[N+](=O)[O-])CCC4OP(=O)(N3CC3)N3CC3)cc2)cn1` (single isomer, unassigned) [Example 521] was 1950 nM; that for `O=C1COCCN1c1cccc(Oc2c([N+](=O)[O-])ccc3c2CCC3OP(=O)(N2CC2)N2CC2)c1` (racemic) [Example 405] was 871 nM.
On the same count and under the same terms, as for `O=c1ccccn1-c1cccc(Oc2c([N+](=O)[O-])ccc3c2CCC3OP(=O)(N2CC2)N2CC2)c1` (racemic) [Example 406], the figure is 1320 nM; as for `O=[N+]([O-])c1ccc2c(c1Oc1cccc(-c3ncccn3)c1)CCC2OP(=O)(N1CC1)N1CC1` (stereo not shown) [Example 301], 3730 nM; as for `O=C(c1cccc(Oc2c([N+](=O)[O-])ccc3c2CCC3OP(=O)(N2CC2)N2CC2)c1)N1CCC1` (stereo not shown) [Example 246], 522 nM.
Still for that read-out and setting: as for `O=C1CCCCN1c1cccc(Oc2c([N+](=O)[O-])ccc3c2CCC3OP(=O)(N2CC2)N2CC2)c1` (racemic) [Example 404], the figure is 1020 nM; as for `O=C(c1cccc(Oc2c([N+](=O)[O-])ccc3c2CCC3OP(=O)(N2CC2)N2CC2)c1)N1CCC(F)(F)C1` (stereo not shown) [Example 242], 1270 nM; as for `O=C(c1cccc(Oc2c([N+](=O)[O-])ccc3c2CCC3OP(=O)(N2CC2)N2CC2)c1)N1CCCC1` (stereo not shown) [Example 240], 1150 nM.
With `Cc1noc(-c2cccc(Oc3c([N+](=O)[O-])ccc4c3CCC4OP(=O)(N3CC3)N3CC3)c2)n1` (stereo not shown) [Example 304], the half-inhibitory concentration (IC50) in test [2] was determined as 2130 nM.
Still for that read-out and setting: the value for `O=C(c1cccc(Oc2c([N+](=O)[O-])ccc3c2CCC3OP(=O)(N2CC2)N2CC2)c1)N1CC(F)(F)C1` (stereo not shown) [Example 235] was 717 nM; that for `O=C1OCCN1c1cccc(Oc2c([N+](=O)[O-])ccc3c2CCC3OP(=O)(N2CC2)N2CC2)c1` (stereo not shown) [Example 407] was 380 nM.
